Laboratory results taken from patent US20020160012A1, “Vaccine chip technology exploiting immunostimulating fragment of TGF-BETA” (priority 2000, published 2002).
No end group written: not given here.

Legend:
parvovirus peptide [1] = experiment: Rabbit immunisation with Parv or Parv+TGF-29, serum ELISA for antibody titre (Example 1); format: in vivo, rabbits; details: immune serum samples vs corresponding T0 sera; 3 subcutaneous immunisations at 2 week intervals; freunds incomplete adjuvant
Description: Both preparations were subcutaneously injected into 2 groups of rabbits. The content of each injected dose of 0.2 mL were:
The rabbits were immunised by subcuteous injection according to normal standard immunisation procedures for antibody production in rabbits at a legal laboratory animal facility.
(§1) Before immunisation, a pre-immunisation serum sample (T0) of each rabbit were collected. Two weeks after the last of 3 immunisations (given at 2 week intervals) an immune serum sample (T1) was collected from each rabbit. Hereafter further immune serum samples were collected T2 (4 weeks after T1); T3 (four weeks after T2) etc.
(§2) The serum samples were analysed on an ELISA plate according to standard laboratory operations: Coating the plate bottom with parvo virus peptide derivative overnight, washings, incubation with serial dilutions of all serum samples, washings, incubation with HRP-Goat anti Rabbit Ig, washings, incubation with substrate, stop reaction with acid, and reading of the plate.

[2] = Clinical signs of immunised rabbits; format: in vivo; details: Example 1; subcutaneous, 3 immunisations at 2 week intervals
Text: as §1
Before immunisation, a pre-immunisation serum sample (T0) of each rabbit were collected. Before each of the following immunisations (given at 2 week intervals) an immune serum sample (T1, T2, T3 or T4 ) was collected from each rabbit. The serum sampling frequency is higher compared with example 1.
(§3) Before immunisation, a pre-immunisation serum sample (T0) of each rabbit was collected. Before each of the following immunisations (given at 2 week intervals) an immune serum sample (T1, T2, or T3) was collected from each rabbit.

parvovirus peptide [3] = experiment: Rabbit immunisation with parvovirus peptide, TGF-29 dose and Titermax adjuvant, serum ELISA (Example 3); format: in vivo, rabbits; details: bleeding T3 (6 weeks after first immunisation); 20 ug TGF-29 + 100 ug parvovirus peptide + Titermax (preparation Iris)
Description: Both preparations were subcutaneously injected into 2 groups of rabbits. Each injected dose was 0, 1 mL and the preparations for a resulting volume between 0,4 and 0,5 mL was made as follows:
The rabbits were then immunised according to the normal standard immunisation procedure for antibody production in rabbits at a legal laboratory animal facility.
as §3, §2

| Substance | antibody titre to the parvovirus peptide (parvovirus peptide [1]) | unusual clinical signs [2] | titer to the parvovirus peptide compared with the corresponding T0 serum (parvovirus peptide [3]) | titer to the parvovirus peptide, rank among all bleedings of the example (parvovirus peptide [3]) |
| --- | --- | --- | --- | --- |
| Ac-CDGAVQPDGGQPAVRNER-NH2 [Parv] | Non-detectable or less antibody titre to the parvovirus peptide than in the corresponding T0 sera | None of the rabbits showed any unusual clinical signs |  |  |
| ALDAAYCFRNVQDNCCLRPLYIDFKRDLG (cysteine pairing not given here) [TGF-29, N-terminal 29 amino acid fragment of mature TGF-β] |  |  | more than three 5-fold serial antiserum dilutions better | highest titer |
